Data from patent publication US20250009727A1, “WATER-SOLUBLE SALTS OF DNA BINDING AGENTS” (BOARD OF REGENTS, THE UNIVERSITY OF TEXAS SYSTEM, priority 2021, published 2025).

What was measured:
[1] = CNS uptake of WP1244; conditions: in vivo
[2] = tested on: ependymoma cell lines; test: In vitro cytotoxicity in ependymoma cell lines; assay type: cell-based
Source text: (§1) FIG. 3—In vitro efficacy of WP1874 in ependymoma, normal kidney, glioblastoma, and medulloblastoma cell lines.

[3] = Solubility in water and 5% dextrose at room temperature; assay type: physicochemical
Protocol: To improve solubility and develop IV injectable formulation, different salts of WP1244 were prepared.

[4] = tested on: orthotopic U87 model of GBM; test: In vivo efficacy in orthotopic U87 GBM model; conditions: nude athymic mice, intracranial U87; three doses at 1 and 5 mg/kg IP from day 10
Protocol: FIG. 2—In vivo efficacy of WP1244 in orthotopic U87 GBM model. Eighteen nude athymic mice were implanted intracranially with 0.5 mln U87 GBM cells. Animals were randomized into three experimental groups (n=6). The treatment was initiated on day 10 and consisted of three doses ow WP1244 at 1 and 5 mg/kg given IP.

[5] = tested on: glioblastoma multiforme (GBM) cell lines; test: In vitro cytotoxicity in glioblastoma multiforme (GBM) cell lines; assay type: cell-based
Source text: as §1

COc1cccc2c1C(=O)c1c(O)c3c(c(O)c1C2=O)C[C@](O)(C(C)=O)C[C@H]3OC1CC(NCc2ccc(NC(=O)c3cc(NC(=O)c4cc(NC(=O)c5ccccn5)cn4C)cn3C)cc2)C(O)C(C)O1 (stereo partly shown) [WP1244]
CNS uptake [1]: especially high CNS uptake | Cytotoxicity [2]: picomolar to low nanomolar | Solubility in 5% Dextrose ([3]; 5% dextrose, room temperature): Lower than 0.25 mg/mL | Solubility (in words) ([3]; salt forms compared for IV injectable formulation): poor solubility | Solubility in H2O ([3]; water, room temperature): Lower than 0.25 mg/mL | In vivo activity in orthotopic U87 GBM model [4]: demonstrated in vivo activity | Cytotoxicity [5]: picomolar to low nanomolar
